Measurements: ChEMBL document CHEMBL3612049, “Design, synthesis and molecular docking of salicylic acid derivatives containing metronidazole as a new class of antimicrobial agents” (Bioorg Med Chem, 2015)
Values after ≈ are worked out from the molar mass of the structure shown.

Legend:
[1] = system: Bacillus spizizenii; experiment: Antimicrobial activity against Bacillus subtilis ATCC 6633 after 18 hrs by broth microdilution method; assay type: functional; conditions: ATCC 6633, 18 h
[2] = system: Staphylococcus aureus; experiment: Antimicrobial activity against Staphylococcus aureus ATCC 6538 after 18 hrs by broth microdilution method; assay type: functional; conditions: ATCC 6538, 18 h
[3] = system: Escherichia coli; experiment: Antimicrobial activity against Escherichia coli ATCC 35218 after 18 hrs by broth microdilution method; assay type: functional; conditions: ATCC 35218, 18 h
[4] = system: Pseudomonas aeruginosa; experiment: Antimicrobial activity against Pseudomonas aeruginosa ATCC 13525 after 18 hrs by broth microdilution method; assay type: functional; conditions: ATCC 13525, 18 h
[5] = Inhibition of Staphylococcus aureus TyrRS expressed in Escherichia coli BL21 using L-[ring-3,5-3H]-tyrosine preincubated for 10 mins by liquid scintillation counting
[6] = Hemolytic activity in human erythrocytes assessed as hemoglobin release after 3 hrs by spectrophotometric analysis; assay type: ADME, cell-based, Erythrocyte; conditions: read-out: LC50
[7] = Cytotoxicity against human macrophages after 24 hrs by MTT assay; assay type: cell-based, Macrophage

| Structure (SMILES) | MIC [1] [mg/L] | MIC [2] [mg/L] | MIC [3] [mg/L] | MIC [4] [mg/L] | IC50 [5] [µM] | HC50 at 3 h [6] [µM] | CC50 at 24 h [7] [µM] |
| --- | --- | --- | --- | --- | --- | --- | --- |
| Cc1ncc([N+](=O)[O-])n1CCOC(=O)c1ccccc1OCc1ccccc1 | 12.5 (≈ 32.8 µM) | 12.5 (≈ 32.8 µM) | 25 (≈ 65.6 µM) | 50 (≈ 131 µM) | 5.6 | > 10 | 231 |
| Cc1ncc([N+](=O)[O-])n1CCOC(=O)c1ccccc1OCc1ccccc1F | 25 (≈ 62.6 µM) | 12.5 (≈ 31.3 µM) | 50 (≈ 125 µM) | 50 (≈ 125 µM) | 6.7 | > 10 | 155 |
| Cc1ncc([N+](=O)[O-])n1CCOC(=O)c1ccccc1OCc1cccc(F)c1 | 25 (≈ 62.6 µM) | 12.5 (≈ 31.3 µM) | 50 (≈ 125 µM) | 50 (≈ 125 µM) | 6.3 | > 10 | 124 |
| Cc1ncc([N+](=O)[O-])n1CCOC(=O)c1ccccc1OCc1ccc(F)cc1 | 12.5 (≈ 31.3 µM) | 12.5 (≈ 31.3 µM) | 25 (≈ 62.6 µM) | 25 (≈ 62.6 µM) | 5.7 | > 10 | 157 |
| Cc1ncc([N+](=O)[O-])n1CCOC(=O)c1ccccc1OCc1ccccc1Cl | 6.25 (≈ 15 µM) | 6.25 (≈ 15 µM) | 6.25 (≈ 15 µM) | 12.5 (≈ 30.1 µM) | 4.7 | > 10 | 213 |
| Cc1ncc([N+](=O)[O-])n1CCOC(=O)c1ccccc1OCc1cccc(Cl)c1 | 6.25 (≈ 15 µM) | 6.25 (≈ 15 µM) | 12.5 (≈ 30.1 µM) | 12.5 (≈ 30.1 µM) | 5 | > 10 | 188 |
| Cc1ncc([N+](=O)[O-])n1CCOC(=O)c1ccccc1OCc1ccc(Cl)cc1 | 12.5 (≈ 30.1 µM) | 6.25 (≈ 15 µM) | 25 (≈ 60.1 µM) | 12.5 (≈ 30.1 µM) | 4.8 | > 10 | 168 |
| Cc1ncc([N+](=O)[O-])n1CCOC(=O)c1ccccc1OCc1ccc(Br)cc1 | 6.25 (≈ 13.6 µM) | 6.25 (≈ 13.6 µM) | 12.5 (≈ 27.2 µM) | 12.5 (≈ 27.2 µM) | 4.9 | > 10 | 198 |
| Cc1ccc(COc2ccccc2C(=O)OCCn2c([N+](=O)[O-])cnc2C)cc1 | 3.13 (≈ 7.92 µM) | 3.13 (≈ 7.92 µM) | 12.5 (≈ 31.6 µM) | 12.5 (≈ 31.6 µM) | 4.7 | > 10 | 140 |
| Cc1cc(C)cc(COc2ccccc2C(=O)OCCn2c([N+](=O)[O-])cnc2C)c1 | 1.57 (≈ 3.83 µM) | 3.13 (≈ 7.64 µM) | 6.25 (≈ 15.3 µM) | 12.5 (≈ 30.5 µM) | 3 | > 10 | 252 |
| Cc1ncc([N+](=O)[O-])n1CCOC(=O)c1ccccc1OCc1ccc(C(C)C)cc1 | 3.13 (≈ 7.39 µM) | 3.13 (≈ 7.39 µM) | 6.25 (≈ 14.8 µM) | 6.25 (≈ 14.8 µM) | 3.3 | > 10 | 272 |
| COc1ccc(COc2ccccc2C(=O)OCCn2c([N+](=O)[O-])cnc2C)cc1 | 0.78 (≈ 1.9 µM) | 1.57 (≈ 3.82 µM) | 6.25 (≈ 15.2 µM) | 6.25 (≈ 15.2 µM) | 2.9 | > 10 | 239 |
| Cc1ncc([N+](=O)[O-])n1CCOC(=O)c1ccccc1OCc1ccccc1C(F)(F)F | 50 (≈ 111 µM) | 100 (≈ 223 µM) | 100 (≈ 223 µM) | 100 (≈ 223 µM) | 7.8 | > 10 | 233 |
| Cc1ncc([N+](=O)[O-])n1CCOC(=O)c1ccccc1OCc1cccc(C(F)(F)F)c1 | 100 (≈ 223 µM) | 50 (≈ 111 µM) | 100 (≈ 223 µM) | 100 (≈ 223 µM) | 8.3 | > 10 | 251 |
| Cc1ncc([N+](=O)[O-])n1CCOC(=O)c1ccccc1OCc1ccc(C(F)(F)F)cc1 | 25 (≈ 55.6 µM) | 25 (≈ 55.6 µM) | 50 (≈ 111 µM) | 50 (≈ 111 µM) | 6.3 | > 10 | 242 |
| Cc1ncc([N+](=O)[O-])n1CCOC(=O)c1ccccc1OCc1c(F)cccc1F | 25 (≈ 59.9 µM) | 25 (≈ 59.9 µM) | 50 (≈ 120 µM) | 50 (≈ 120 µM) | 6.9 | > 10 | 277 |
| Cc1ncc([N+](=O)[O-])n1CCOC(=O)c1ccccc1OCc1ccc(F)c(F)c1 | 50 (≈ 120 µM) | 25 (≈ 59.9 µM) | 100 (≈ 240 µM) | 100 (≈ 240 µM) | 6 | > 10 | 256 |
| Cc1ncc([N+](=O)[O-])n1CCOC(=O)c1ccccc1OCc1ccc(Cl)c(Cl)c1 | 0.78 (≈ 1.73 µM) | 0.39 (≈ 0.866 µM) | 3.13 (≈ 6.95 µM) | 1.57 (≈ 3.49 µM) | 2.3 | > 10 | 188 |
| Cc1ncc([N+](=O)[O-])n1CCOC(=O)c1ccccc1OCc1cc(Cl)ccc1Cl | 0.78 (≈ 1.73 µM) | 1.57 (≈ 3.49 µM) | 3.13 (≈ 6.95 µM) | 6.25 (≈ 13.9 µM) | 2.7 | > 10 | 193 |
| Cc1ncc([N+](=O)[O-])n1CCOC(=O)c1ccccc1OCc1ccc(Cl)c(F)c1 | 3.13 (≈ 7.21 µM) | 3.13 (≈ 7.21 µM) | 6.25 (≈ 14.4 µM) | 6.25 (≈ 14.4 µM) | 3.2 | > 10 | 180 |
| Cc1ncc([N+](=O)[O-])n1CCOC(=O)c1ccccc1OCc1cccc(Cl)c1F | 1.57 (≈ 3.62 µM) | 3.13 (≈ 7.21 µM) | 12.5 (≈ 28.8 µM) | 6.25 (≈ 14.4 µM) | 2.9 | > 10 | 190 |
| Cc1ncc([N+](=O)[O-])n1CCOC(=O)c1ccccc1OCc1cc(F)c(F)c(F)c1 | 25 (≈ 57.4 µM) | 25 (≈ 57.4 µM) | 100 (≈ 230 µM) | 50 (≈ 115 µM) | 6.7 | > 10 | 267 |
| Cc1ncc([N+](=O)[O-])n1CCOC(=O)c1ccccc1OCc1c(F)c(F)c(F)c(F)c1F | 50 (≈ 106 µM) | 50 (≈ 106 µM) | 100 (≈ 212 µM) | 100 (≈ 212 µM) | 8 | > 10 | 236 |
| O=C(N[C@H](CO)[C@H](O)c1ccc([N+](=O)[O-])cc1)C(Cl)Cl [CHLORAMPHENICOL] | 1.57 (≈ 4.86 µM) | 1.57 (≈ 4.86 µM) | 6.25 (≈ 19.3 µM) | 0.78 (≈ 2.41 µM) |  |  |  |
| CC1(C)S[C@@H]2[C@H](NC(=O)Cc3ccccc3)C(=O)N2[C@H]1C(=O)O [PENICILLIN G] | 0.78 (≈ 2.33 µM) | 0.78 (≈ 2.33 µM) | 6.25 (≈ 18.7 µM) | 6.25 (≈ 18.7 µM) |  |  |  |
